From patent US20230117470A1, “SUBSTITUTED PYRAZOLE COMPOUNDS AS TOLL RECEPTOR INHIBITORS” (BRISTOL-MYERS SQUIBB COMPANY, priority 2019, published 2023) come the findings set out here.

The term IC50 denotes the concentration needed to halve the response being measured. A low value points to greater potency.

Common to all, as to format: cell-based
The target in one experiment is T1, human TLR9 (Homo sapiens, UniProt Q9NR96).
T1 construct: host or cells: HEK-Blue cells
T1 sequence (Q9NR96 26-1032): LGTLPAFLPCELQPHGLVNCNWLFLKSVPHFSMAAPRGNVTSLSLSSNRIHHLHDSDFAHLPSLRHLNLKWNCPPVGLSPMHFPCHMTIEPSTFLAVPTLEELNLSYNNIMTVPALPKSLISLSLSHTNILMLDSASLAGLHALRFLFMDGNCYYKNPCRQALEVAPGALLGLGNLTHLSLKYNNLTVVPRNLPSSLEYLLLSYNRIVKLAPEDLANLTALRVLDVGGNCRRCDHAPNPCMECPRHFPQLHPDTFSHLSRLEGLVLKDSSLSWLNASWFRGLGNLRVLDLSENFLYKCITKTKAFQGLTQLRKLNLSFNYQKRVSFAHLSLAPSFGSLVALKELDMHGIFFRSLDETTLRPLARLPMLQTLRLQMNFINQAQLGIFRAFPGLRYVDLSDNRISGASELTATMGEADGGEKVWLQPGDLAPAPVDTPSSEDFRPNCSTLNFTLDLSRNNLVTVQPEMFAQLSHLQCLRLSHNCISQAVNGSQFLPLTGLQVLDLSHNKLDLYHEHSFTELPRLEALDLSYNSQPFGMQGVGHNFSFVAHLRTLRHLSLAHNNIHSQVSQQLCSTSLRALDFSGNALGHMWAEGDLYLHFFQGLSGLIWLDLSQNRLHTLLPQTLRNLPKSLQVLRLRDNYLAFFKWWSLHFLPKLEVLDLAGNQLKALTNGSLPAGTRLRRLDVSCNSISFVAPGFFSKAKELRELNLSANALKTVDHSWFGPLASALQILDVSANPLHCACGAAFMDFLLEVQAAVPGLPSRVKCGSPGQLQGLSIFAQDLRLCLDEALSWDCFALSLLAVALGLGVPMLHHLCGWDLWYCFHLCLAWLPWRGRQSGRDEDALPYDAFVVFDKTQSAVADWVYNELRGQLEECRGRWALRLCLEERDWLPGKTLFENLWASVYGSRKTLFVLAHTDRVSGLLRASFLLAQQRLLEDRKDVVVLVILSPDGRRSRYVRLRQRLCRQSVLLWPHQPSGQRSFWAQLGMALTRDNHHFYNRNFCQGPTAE
The experiment is described as follows: TLR9 inhibition reporter assay (HEK-Blue cells, SEAP reporter, ODN2006 stimulation). Particulars: HEK-Blue cells overexpressing human TLR9, SEAP reporter, ODN2006 5 nM. In outline: (§1)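 Percent inhibition of agonist-induced SEAP, set between agonist+DMSO wells and known-inhibitor wells, after 22 h at 37° C. Compounds (0.05 nM-50 μM final) were added 30 min at room temperature before ligand: gardiquimod 7.5 μM for TLR7, R848 15.9 μM for TLR8, ODN2006 5 nM for TLR9. Human receptors overexpressed in HEK-Blue reporter cells.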
A general note: A reporter such as luciferase makes a cellular process visible.

In a further experiment the target is T2, human TLR7 (Homo sapiens, UniProt Q9NYK1).
T2 construct: host or cells: HEK-Blue cells
T2 sequence (Q9NYK1 27-1049): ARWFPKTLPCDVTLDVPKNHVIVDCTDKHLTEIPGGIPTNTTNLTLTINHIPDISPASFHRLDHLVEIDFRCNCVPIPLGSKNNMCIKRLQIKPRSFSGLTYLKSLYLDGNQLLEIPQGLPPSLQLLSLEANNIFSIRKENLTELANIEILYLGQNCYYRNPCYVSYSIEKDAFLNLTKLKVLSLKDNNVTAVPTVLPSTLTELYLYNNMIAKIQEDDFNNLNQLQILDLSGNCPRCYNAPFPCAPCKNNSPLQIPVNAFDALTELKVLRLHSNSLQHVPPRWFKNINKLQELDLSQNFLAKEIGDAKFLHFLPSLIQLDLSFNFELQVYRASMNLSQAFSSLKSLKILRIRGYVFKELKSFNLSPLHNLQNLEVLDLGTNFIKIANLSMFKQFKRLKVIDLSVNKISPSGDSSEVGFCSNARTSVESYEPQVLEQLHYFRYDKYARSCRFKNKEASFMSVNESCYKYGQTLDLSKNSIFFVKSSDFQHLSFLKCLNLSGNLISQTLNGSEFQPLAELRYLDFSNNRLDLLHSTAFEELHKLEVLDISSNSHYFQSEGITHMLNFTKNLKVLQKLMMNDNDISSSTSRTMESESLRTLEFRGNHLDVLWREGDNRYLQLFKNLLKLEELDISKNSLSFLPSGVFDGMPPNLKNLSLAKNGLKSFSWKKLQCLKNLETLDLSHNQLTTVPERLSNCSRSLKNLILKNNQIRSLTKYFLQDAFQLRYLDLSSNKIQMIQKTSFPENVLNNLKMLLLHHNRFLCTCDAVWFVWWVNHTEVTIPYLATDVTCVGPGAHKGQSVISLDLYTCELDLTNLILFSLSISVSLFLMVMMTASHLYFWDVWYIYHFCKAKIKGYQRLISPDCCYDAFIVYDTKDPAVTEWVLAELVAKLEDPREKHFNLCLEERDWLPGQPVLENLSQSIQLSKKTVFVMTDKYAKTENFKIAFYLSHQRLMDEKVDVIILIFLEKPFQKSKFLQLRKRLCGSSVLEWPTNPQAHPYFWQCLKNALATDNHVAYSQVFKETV
The experiment is described as follows: TLR7 inhibition reporter assay (HEK-Blue cells, SEAP reporter, gardiquimod stimulation). The following applies: HEK-Blue cells overexpressing human TLR7, SEAP reporter, gardiquimod 7.5 μM. The procedure, abridged:
as §1

The target in the next experiment is T3, human TLR8 (Homo sapiens, UniProt Q9NR97).
T3 construct: host or cells: HEK-Blue cells
T3 sequence (Q9NR97 27-1041): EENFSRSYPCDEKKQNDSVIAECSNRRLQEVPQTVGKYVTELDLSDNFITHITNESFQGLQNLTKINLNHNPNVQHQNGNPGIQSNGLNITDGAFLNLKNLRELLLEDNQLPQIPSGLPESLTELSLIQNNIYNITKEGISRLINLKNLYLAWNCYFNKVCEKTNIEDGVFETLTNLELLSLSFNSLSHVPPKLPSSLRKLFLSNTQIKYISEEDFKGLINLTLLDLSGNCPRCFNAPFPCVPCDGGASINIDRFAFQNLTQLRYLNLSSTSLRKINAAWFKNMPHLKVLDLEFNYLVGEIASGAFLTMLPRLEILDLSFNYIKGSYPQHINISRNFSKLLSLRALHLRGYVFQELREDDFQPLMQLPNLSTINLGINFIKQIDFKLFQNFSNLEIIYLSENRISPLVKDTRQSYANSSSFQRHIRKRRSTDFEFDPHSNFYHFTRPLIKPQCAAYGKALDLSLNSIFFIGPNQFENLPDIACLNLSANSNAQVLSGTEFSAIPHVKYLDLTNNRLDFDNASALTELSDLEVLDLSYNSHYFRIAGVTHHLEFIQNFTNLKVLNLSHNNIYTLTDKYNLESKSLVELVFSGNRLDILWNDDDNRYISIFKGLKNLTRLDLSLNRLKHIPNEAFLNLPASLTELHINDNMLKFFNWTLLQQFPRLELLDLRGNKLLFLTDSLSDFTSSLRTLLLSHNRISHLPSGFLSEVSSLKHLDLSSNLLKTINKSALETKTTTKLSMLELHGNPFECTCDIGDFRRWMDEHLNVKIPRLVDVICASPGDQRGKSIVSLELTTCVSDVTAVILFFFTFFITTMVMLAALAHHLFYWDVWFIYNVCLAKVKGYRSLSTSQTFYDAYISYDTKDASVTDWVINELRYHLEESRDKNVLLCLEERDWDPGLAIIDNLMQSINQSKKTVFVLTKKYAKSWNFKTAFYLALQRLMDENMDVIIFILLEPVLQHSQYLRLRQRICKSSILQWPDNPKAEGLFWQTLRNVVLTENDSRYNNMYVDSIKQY
The experiment is described as follows: TLR8 inhibition reporter assay (HEK-Blue cells, SEAP reporter, R848 stimulation). Particulars: HEK-Blue cells overexpressing human TLR8, SEAP reporter, R848 15.9 μM. The procedure, abridged: as §1

Where a name gives a salt, the structure may show the parent alone.

For the molecule `Cc1cc(-c2[nH]nc(-c3ccc4c(c3)CCNC4)c2C(C)C)cn2ncnc12` [Example 213, 6-(4-isopropyl-5-(8-methyl-[1,2,4]triazolo[1,5-a]pyridin-6-yl)-1H-pyrazol-3-yl)-1,2,3,4-tetrahydroisoquinoline, HCl], the half-maximal inhibitory concentration (IC50) against human TLR9 stood at 25500 nM; against human TLR7, 4.64 nM; on human TLR8 it was 3.41 nM.

`Cc1cc(-c2[nH]nc(C(=O)N[C@H]3CC[C@@H](NC4COC4)CC3)c2C(C)C)cn2ncnc12` [Example 86]: the results for the concentration for half-maximal inhibition (IC50) against human TLR9, on human TLR7 and against human TLR8 were 6420 nM, 1.34 nM and 0.7 nM, respectively.

Turning to `Cc1c(-c2[nH]nc(C(=O)NC3CCN(C(C)C)CC3)c2C(C)C)cn2ncnc2c1C` [Example 33], the concentration for half-maximal inhibition (IC50) was greater than 50000 nM against human TLR9, 3.86 nM on human TLR7 and 1.52 nM against human TLR8.

For the molecule `Cc1cc(-c2[nH]nc(C(=O)N[C@H]3CC[C@H](NCC4CCCC4)CC3)c2C(C)C)cn2ncnc12` [Example 109], the results for the half-inhibitory concentration (IC50) against human TLR9, on human TLR7 and on human TLR8 were 6090 nM, 6.81 nM and 27.9 nM, respectively.

Regarding `COc1cc(-c2[nH]nc(C(=O)NCC3CCNCC3)c2C(C)C)cn2ncnc12` [Example 62], the 50% inhibitory concentration (IC50) at human TLR9 was greater than 50000 nM; against human TLR7, 88.6 nM; on human TLR8, 22.3 nM.

On to `COc1cc(-c2[nH]nc(-c3ccc(C4CCN(CC5CC5)CC4)cn3)c2C(C)C)cn2ncnc12` [Example 374], for which the IC50 worked out at 41500 nM at human TLR9, 11.7 nM at human TLR7 and 9.33 nM at human TLR8.

Regarding `Cc1cc(-c2[nH]nc(C(=O)NC3CCN(C(C)C(C)C)CC3)c2C(C)C)cn2ncnc12` (stereo not drawn) [Example 125], the half-maximal inhibitory concentration (IC50) against human TLR9 amounted to 5400 nM; against human TLR7, 5.8 nM; at human TLR8 it was 25.9 nM.

With `COc1cc(-c2[nH]nc(C(=O)NC3CCN(C4CCN(C(C)C)CC4)CC3)c2CC(F)(F)F)cn2ncnc12` [Example 199], the IC50 against human TLR9 was found to be 2950 nM; against human TLR7, 4.98 nM; at human TLR8, 2.19 nM.

On to `Cc1cc(-c2[nH]nc(-c3nc4c(s3)CN(C3COC3)CC4)c2C(C)C)cn2ncnc12` [Example 253], for which the IC50 against human TLR9 came to 23000 nM; against human TLR7 it was 4.7 nM; on human TLR8 it was 3.01 nM.

Consider `Cc1cc(-c2[nH]nc(C(=O)N[C@H]3CCCN(CC4=NC(C)N=N4)C3)c2C(C)C)cn2ncnc12` (stereo partly drawn) [Example 165], for which the values for the IC50 against human TLR9, against human TLR7 and against human TLR8 were 22800 nM, 1.61 nM and 14.4 nM, respectively.

Consider `Cc1cc(-c2[nH]nc(C(=O)N[C@H]3CCCN(C4COC4)C3)c2C(C)C)cn2ncnc12` [Example 166], for which the concentration for half-maximal inhibition (IC50) is 383 nM at human TLR9, 0.88 nM at human TLR7 and 0.87 nM against human TLR8.

For `Cc1cc(-c2[nH]nc(C(=O)N3CCC(CN)CC3)c2C(C)C)cn2ncnc12` [Example 61], the half-maximal inhibitory concentration (IC50) at human TLR9 was greater than 50000 nM; on human TLR7, 22.7 nM; against human TLR8, 5.33 nM.

On to `CCC(C)N1CCC(NC(=O)c2n[nH]c(-c3cc(C)c4ncnn4c3)c2C(C)C)CC1` (stereo not drawn) [Example 152], for which the IC50 on human TLR9 came to 20900 nM; against human TLR7, 13.7 nM; against human TLR8, 31.6 nM.

For the molecule `Cc1cc(-c2[nH]nc(C(=O)NC3CCN(CC(F)(F)F)CC3)c2C(C)C)cn2ncnc12` [Example 173], the IC50 against human TLR9 was 7790 nM; against human TLR7 it was 8.56 nM; on human TLR8 it was 7.58 nM.

In the case of `Cc1cc(-c2[nH]nc(C(=O)NC3CCN(C(C)C)CC3)c2C(C)C)ccn1` [Example 38], the IC50 on human TLR9 came to 2280 nM; at human TLR7, 7.93 nM; against human TLR8, 4.43 nM.

For `Cc1cc(-c2[nH]nc(C(=O)N[C@H]3CC[C@@H](NC4CCOC(C)(C)C4)CC3)c2C(C)C)cn2ncnc12` (stereo partly drawn) [Example 97], the figures for the IC50 against human TLR9, at human TLR7 and at human TLR8 were 5490 nM, 2.42 nM and 41.9 nM, respectively.

Take `Cc1cc(-c2[nH]nc(C3CCC(NCCN(C)C)CC3)c2C(C)C)cn2ncnc12` (single isomer, unassigned) [Example 284]: the values for the half-maximal inhibitory concentration (IC50) on human TLR9, at human TLR7 and against human TLR8 were greater than 50000 nM, 9.6 nM and 5.12 nM, respectively.

Turning to `Cc1cc(-c2[nH]nc(C(=O)NC3CCN(CCC(C)(C)C)CC3)c2C(C)C)cn2ncnc12` [Example 75], the figures for the half-inhibitory concentration (IC50) against human TLR9, at human TLR7 and at human TLR8 were 3390 nM, 0.89 nM and 7.55 nM, respectively.

As to `COc1ncc(CN[C@H]2CC[C@H](NC(=O)c3n[nH]c(-c4cc(C)c5ncnn5c4)c3C(C)C)CC2)cn1` [Example 114], the IC50 against human TLR9 was found to be 1460 nM; against human TLR7, 3.63 nM; against human TLR8 it was 1.4 nM.

In the case of `Cc1cc(-c2[nH]nc(C(=O)NC3CCN(C(C)C)CC3)c2C(C)C)cn2ncnc12` [Example 2], the figures for the half-maximal inhibitory concentration (IC50) at human TLR9, at human TLR7 and against human TLR8 were 6560 nM, 2.27 nM and 5.82 nM, respectively.

On to `Cc1cc(-c2[nH]nc(-c3nc4ccc(NC(C)C)cc4s3)c2C(C)C)cn2ncnc12` [Example 258], for which the IC50 against human TLR9 was 29400 nM; against human TLR7, 36.5 nM; against human TLR8, 9.16 nM.
